# Target: T1, human acetyl-CoA carboxylase 2 (ACC2) (Homo sapiens, UniProt O00763)
# T1 construct: The cDNA encoding amino acids 144 to 2458 of human acetyl-CoA carboxylase 2; made in house; host or cells: Sf9 insect cells (baculovirus, pFastBac1)
# Assay: Acetyl-CoA carboxylase enzyme assay (malonyl-CoA formation by LC/MS/MS)
# Assay type: biochemical
# Settings: recombinant human ACC2 (aa 144-2458); read-out: IC50 ACC2
# Procedure, shortened: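 Malonyl-CoA formation was read by LC/MS/MS MRM against a [13C3]-malonyl-CoA internal standard, after acetic acid quench. The enzyme was baculovirus/Sf9-expressed human ACC2 residues 144–2458, given 15 minutes room-temperature compound preincubation in HEPES pH 7.5 buffer with MgCl2, citrate and DTT. Substrate solution held 50 μM acetyl-CoA, 120 μM ATP and 2 mM KHCO3.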
# T1 sequence (O00763 144-2458): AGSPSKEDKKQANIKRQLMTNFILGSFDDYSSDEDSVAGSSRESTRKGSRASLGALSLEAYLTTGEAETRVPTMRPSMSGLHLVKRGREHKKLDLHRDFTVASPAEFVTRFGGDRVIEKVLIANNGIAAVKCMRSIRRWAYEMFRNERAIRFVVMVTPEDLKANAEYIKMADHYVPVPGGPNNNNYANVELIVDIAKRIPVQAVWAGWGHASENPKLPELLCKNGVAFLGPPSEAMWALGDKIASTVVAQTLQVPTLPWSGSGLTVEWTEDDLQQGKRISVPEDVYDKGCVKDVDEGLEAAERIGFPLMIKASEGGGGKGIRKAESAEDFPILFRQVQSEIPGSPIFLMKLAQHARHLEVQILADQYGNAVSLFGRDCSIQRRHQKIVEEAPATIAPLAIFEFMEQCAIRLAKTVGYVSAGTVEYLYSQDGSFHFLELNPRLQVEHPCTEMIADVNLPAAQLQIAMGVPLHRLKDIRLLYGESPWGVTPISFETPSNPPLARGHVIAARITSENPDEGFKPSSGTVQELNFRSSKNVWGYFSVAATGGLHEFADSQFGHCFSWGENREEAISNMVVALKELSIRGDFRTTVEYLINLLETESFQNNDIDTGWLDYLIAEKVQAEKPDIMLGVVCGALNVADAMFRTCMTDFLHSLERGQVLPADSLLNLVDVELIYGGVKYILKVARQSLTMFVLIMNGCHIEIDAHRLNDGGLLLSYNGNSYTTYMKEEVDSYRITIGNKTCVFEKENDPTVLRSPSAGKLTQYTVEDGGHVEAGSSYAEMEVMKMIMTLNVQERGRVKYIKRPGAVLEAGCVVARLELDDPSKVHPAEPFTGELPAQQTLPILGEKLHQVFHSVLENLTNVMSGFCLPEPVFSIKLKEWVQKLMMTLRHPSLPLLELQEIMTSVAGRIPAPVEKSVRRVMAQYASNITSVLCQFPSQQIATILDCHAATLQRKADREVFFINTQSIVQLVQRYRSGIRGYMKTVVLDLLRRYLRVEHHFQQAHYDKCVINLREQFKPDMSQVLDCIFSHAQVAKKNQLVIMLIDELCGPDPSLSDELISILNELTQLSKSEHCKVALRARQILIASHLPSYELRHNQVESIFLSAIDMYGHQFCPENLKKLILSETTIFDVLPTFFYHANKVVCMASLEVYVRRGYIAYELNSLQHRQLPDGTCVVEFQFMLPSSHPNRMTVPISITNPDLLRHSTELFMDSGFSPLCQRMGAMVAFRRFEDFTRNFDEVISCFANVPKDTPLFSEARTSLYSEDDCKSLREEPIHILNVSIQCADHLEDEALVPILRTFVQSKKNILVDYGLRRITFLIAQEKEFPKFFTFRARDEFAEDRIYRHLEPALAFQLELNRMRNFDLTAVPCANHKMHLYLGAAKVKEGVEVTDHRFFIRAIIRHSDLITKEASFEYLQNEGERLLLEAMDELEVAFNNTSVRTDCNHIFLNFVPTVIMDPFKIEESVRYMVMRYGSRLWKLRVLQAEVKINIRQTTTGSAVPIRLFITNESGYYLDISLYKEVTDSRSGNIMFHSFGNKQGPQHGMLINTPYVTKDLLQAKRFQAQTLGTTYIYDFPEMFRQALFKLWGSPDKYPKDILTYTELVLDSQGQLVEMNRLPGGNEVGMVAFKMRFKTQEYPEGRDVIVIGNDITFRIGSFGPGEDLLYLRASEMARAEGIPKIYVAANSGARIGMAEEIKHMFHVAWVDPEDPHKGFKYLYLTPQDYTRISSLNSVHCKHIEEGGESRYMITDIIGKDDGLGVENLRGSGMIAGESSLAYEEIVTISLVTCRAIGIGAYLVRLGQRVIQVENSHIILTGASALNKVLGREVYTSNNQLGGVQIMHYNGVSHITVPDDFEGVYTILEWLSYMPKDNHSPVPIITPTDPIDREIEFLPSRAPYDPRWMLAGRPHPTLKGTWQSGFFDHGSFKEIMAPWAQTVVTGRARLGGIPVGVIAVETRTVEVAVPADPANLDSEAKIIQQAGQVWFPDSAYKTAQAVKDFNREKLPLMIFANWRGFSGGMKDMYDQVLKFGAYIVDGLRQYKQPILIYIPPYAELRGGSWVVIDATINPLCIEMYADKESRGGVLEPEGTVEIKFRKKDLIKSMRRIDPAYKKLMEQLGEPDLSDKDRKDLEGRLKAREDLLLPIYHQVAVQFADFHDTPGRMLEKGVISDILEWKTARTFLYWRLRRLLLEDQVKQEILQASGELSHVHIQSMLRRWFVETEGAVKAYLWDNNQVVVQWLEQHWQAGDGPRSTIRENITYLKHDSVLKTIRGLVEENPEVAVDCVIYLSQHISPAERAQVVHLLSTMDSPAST
row,SMILES,IC50
1,"COC(=O)CCc1ccc(-c2cc3ccc(S(=O)(=O)N[C@H]4CC[C@H](C(=O)N5CCCC5C(C)(C)C)CC4)cc3n2C)cc1 (some centres unmarked) [Example 394, methyl 3-(4-(6-(N-((1r,4r)-4-(2-tert-butylpyrrolidine-1-carbonyl)cyclohexyl)sulfamoyl)-1-methyl-1H-indol-2-yl)phenyl)propanoate]",15 nM
2,"Cn1c(-c2ccc(CCC(=O)O)cc2)cc2ccc(S(=O)(=O)N[C@H]3CC[C@H](C(=O)N4CCCC4C(C)(C)C)CC3)cc21 (some centres unmarked) [Example 395, 3-(4-(6-(N-((1r,4r)-4-(2-tert-butylpyrrolidine-1-carbonyl)cyclohexyl)sulfamoyl)-1-methyl-1H-indol-2-yl)phenyl)propanoic acid]",< 10 nM
3,"COC(=O)C(C)(C)[C@@H](NC(=O)[C@H]1CC[C@H](NS(=O)(=O)c2ccc3cc(C4CC4)n(C)c3c2)CC1)c1ccccc1 [Example 396, (S)-methyl 3-((1r,4S)-4-(2-cyclopropyl-1-methyl-1H-indole-6-sulfonamido)cyclohexanecarboxamido)-2,2-dimethyl-3-phenylpropanoate]",10 nM
4,"C[C@@H](OC(=O)C1(C)CCC(NS(=O)(=O)c2ccc3c(ccn3C)c2)CC1)c1ccccc1 (stereo partly drawn) [Example 398, (R)-1-phenylethyl 1-methyl-4-(1-methyl-1H-indole-5-sulfonamido)cyclohexanecarboxylate]",< 10 nM
5,"Cn1c(-c2ccc(CCC(=O)O)cc2)cc2ccc(S(=O)(=O)N[C@H]3CC[C@H](C(=O)N4CCC[C@H]4C(C)(C)C)CC3)cc21 [Example 399, 3-(4-(6-(N-((1S,4r)-4-((S)-2-tert-butylpyrrolidine-1-carbonyl)cyclohexyl)sulfamoyl)-1-methyl-1H-indol-2-yl)phenyl)propanoic acid]",340 nM
6,"CC1COCCN1C(=O)[C@H]1CC[C@H](NS(=O)(=O)c2ccc3c(C#N)c(C4CC4)n(C)c3c2)CC1 (some centres unmarked) [Example 401, 3-cyano-2-cyclopropyl-1-methyl-N-((1r,4r)-4-(3-methylmorpholine-4-carbonyl)cyclohexyl)-1H-indole-6-sulfonamide]",25 nM
7,"Cn1c(-c2ccccc2)cc2ccc(S(=O)(=O)N[C@H]3CC[C@H](C(=O)N4CCCOCC4)CC3)cc21 [Example 402, N-((1r,4r)-4-(1,4-oxazepane-4-carbonyl)cyclohexyl)-1-methyl-2-phenyl-1H-indole-6-sulfonamide]",130 nM

# The remaining lines, values ahead:
row,IC50,SMILES
1,115 nM,"Cn1c(-c2ccc(CCC(=O)O)cc2)cc2ccc(S(=O)(=O)N[C@H]3CC[C@H](C(=O)N4CCC[C@@H]4c4ccc(F)cc4)CC3)cc21 [Example 392, 3-(4-(6-(N-((1R,4r)-4-((R)-2-(4-fluorophenyl)pyrrolidine-1-carbonyl)cyclohexyl)sulfamoyl)-1-methyl-1H-indol-2-yl)phenyl)propanoic acid]"
2,< 10 nM,"Cn1c(-c2ccc(CCC(=O)O)cc2)cc2ccc(S(=O)(=O)N[C@H]3CC[C@H](C(=O)N4CCC[C@H]4c4ccc(F)cc4)CC3)cc21 [Example 393, 3-(4-(6-(N-((1S,4r)-4-((S)-2-(4-fluorophenyl)pyrrolidine-1-carbonyl)cyclohexyl)sulfamoyl)-1-methyl-1H-indol-2-yl)phenyl)propanoic acid]"
3,< 10 nM,"Cn1c(-c2ccc(CCC(=O)O)cc2)cc2ccc(S(=O)(=O)N[C@H]3CC[C@H](C(=O)N4CCC[C@@H]4C(F)(F)F)CC3)cc21 [Example 397, 3-(4-(1-methyl-6-(N-((1R,4r)-4-((R)-2-(trifluoromethyl)pyrrolidine-1-carbonyl)cyclohexyl)sulfamoyl)-1H-indol-2-yl)phenyl)propanoic acid]"
4,< 10 nM,"Cn1c(-c2ccc(CCC(=O)O)cc2)cc2ccc(S(=O)(=O)N[C@H]3CC[C@H](C(=O)N4CCC[C@@H]4C(C)(C)C)CC3)cc21 [Example 400, 3-(4-(6-(N-((1R,4r)-4-((R)-2-tert-butylpyrrolidine-1-carbonyl)cyclohexyl)sulfamoyl)-1-methyl-1H-indol-2-yl)phenyl)propanoic acid]"

# — patent US8697739B2, “Bicyclic acetyl-CoA carboxylase inhibitors and uses thereof” (Novartis AG, priority 2010, dated 2014)
